We go through eleven molecules from ChEMBL document CHEMBL1201862, “PubChem BioAssay data set” (2004).

Among the test systems are MDA-N; TK-10; A549; SNB-19; HCT-15; UACC-62; COLO 205; K562; MCF7; IGROV-1; U-251; SW-620; HL-60; LOX IMVI; Hs-578T; UO-31; A498; Malme-3M; SK-MEL-28; OVCAR-3.
Common to all, as to experiment: NCI-60 cell line screen, 48 h

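Following 48 hours of exposure in 96-well plates, responses at five concentrations were used to interpolate endpoints linearly. Abbreviation: GI50, concentration required for 50% inhibition of growth.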 Active and inactive are the calls of the source. Cut-off read from the data, not from the text of the source: active = GI50 up to about 1.1 µM and inactive = higher.

As for `Nc1nc(N)c2c(Cl)c(CNc3ccc(C(=O)NC(CC(=O)O)C(=O)O)cc3)ccc2n1` (stereo not given), the GI50 in the assay with MDA-N was < 0.01 µM (active); with TK-10 it was < 0.01 µM (active); in the assay on A549 it was < 0.01 µM (active); in the assay on SNB-19 it was < 0.01 µM (active); in the assay on HCT-15 it was below 0.01 µM; in the assay with UACC-62 it was < 0.01 µM (active). Also, the GI50 with COLO 205, in the assay on K562, with MCF7, with IGROV-1, in the assay with U-251 and in the assay on SW-620 was < 0.01 µM (active) in each case. In addition, the GI50 in the assay with HL-60 is < 0.01 µM (active); in the assay with LOX IMVI it was < 0.01 µM (active); in the assay with Hs-578T it was 22.8 µM (inactive); in the assay with UO-31 it was < 0.01 µM (active); in the assay with A498 it was < 0.01 µM (active); in the assay with Malme-3M, 17.7 µM (inactive).

Take `Cn1c(=O)c2c(nc3n2CCCC(=O)N3CCCCl)n(C)c1=O`: the GI50 is > 100 µM (inactive) with MDA-N; > 100 µM (inactive) in the assay on TK-10; > 100 µM (inactive) with A549; > 100 µM (inactive) in the assay on SNB-19; > 100 µM (inactive) in the assay with SK-MEL-28; above 100 µM in the assay with HCT-15. Also, the GI50 with UACC-62, with OVCAR-3, in the assay on COLO 205, with K562, in the assay with MCF7 and in the assay with IGROV-1 was > 100 µM (inactive) in each case. Besides, the GI50 in the assay with U-251, in the assay on SW-620, in the assay on HL-60, with LOX IMVI, with Hs-578T and in the assay with UO-31 was > 100 µM (inactive) in each case. For the same molecule, the GI50 with A498 was > 100 µM (inactive).

Take `CCOc1cc(NC(C)=O)ccc1C(=O)NN1C(=O)/C(=C/c2cc(OC)c(OC)c(OC)c2)N=C1c1ccccc1`: the GI50 was > 100 µM (inactive) with MDA-N; > 100 µM (inactive) with A549; > 100 µM (inactive) in the assay with SNB-19; > 100 µM (inactive) in the assay with SK-MEL-28; above 100 µM in the assay with HCT-15; > 100 µM (inactive) with UACC-62. The GI50 with OVCAR-3, in the assay on COLO 205, with K562, with MCF7, with IGROV-1 and in the assay with SW-620 was > 100 µM (inactive) each time. Moreover, the GI50 with HL-60 is > 100 µM (inactive); in the assay with LOX IMVI it was > 100 µM (inactive); in the assay with Hs-578T it was > 100 µM (inactive); with UO-31, > 100 µM (inactive); in the assay on A498, > 100 µM (inactive); with Malme-3M, 53.5 µM (inactive).

Regarding `Cc1ccc2nc(SCC(=O)N/N=C3\C(=O)Nc4ccccc43)n(-c3ccccc3)c(=O)c2c1`, the GI50 was 19 µM (inactive) with MDA-N; 15.5 µM (inactive) in the assay with TK-10; 15.2 µM (inactive) in the assay on A549; 17.5 µM (inactive) in the assay with SNB-19; 15.4 µM (inactive) with SK-MEL-28; 17.2 µM with HCT-15. For the same molecule, the GI50 was 16.9 µM (inactive) in the assay on UACC-62; 18.8 µM (inactive) in the assay with OVCAR-3; 13.4 µM (inactive) with COLO 205; 23.7 µM (inactive) in the assay on K562; 16.1 µM (inactive) in the assay with MCF7; 12.3 µM (inactive) with U-251. The GI50 with SW-620 was 23.6 µM (inactive); in the assay with HL-60, 25.5 µM (inactive); in the assay with LOX IMVI, 15.6 µM (inactive); in the assay on Hs-578T, 17.8 µM (inactive); with UO-31, 2.02 µM (inactive); with A498, 14.9 µM (inactive). Besides, the GI50 in the assay with Malme-3M is 20.2 µM (inactive).

As to `Cc1ccc(C2=Nn3c(nc4sc(-c5ccccc5)cc4c3=O)SC2)cc1`, the GI50 is > 100 µM (inactive) in the assay on MDA-N; > 100 µM (inactive) in the assay on TK-10; > 100 µM (inactive) in the assay on A549; > 100 µM (inactive) with SK-MEL-28; above 100 µM with HCT-15; > 100 µM (inactive) in the assay with UACC-62. Also, the GI50 in the assay on OVCAR-3, in the assay with COLO 205, in the assay with K562, in the assay on MCF7, in the assay with IGROV-1 and in the assay on U-251 was > 100 µM (inactive) in each case. For the same molecule, the GI50 with SW-620, with HL-60, in the assay on LOX IMVI, in the assay on Hs-578T, in the assay on UO-31 and in the assay on A498 was > 100 µM (inactive) throughout. Moreover, the GI50 in the assay with Malme-3M is > 100 µM (inactive).

As to `Cc1ccc(NC=O)c(-c2c(N)[nH]c(=S)[nH]c2=O)c1`, the GI50 in the assay on MDA-N is > 100 µM (inactive); in the assay on TK-10 it was > 100 µM (inactive); with A549 it was > 100 µM (inactive); in the assay with SNB-19 it was > 100 µM (inactive); in the assay on HCT-15 it was above 100 µM; with UACC-62, > 100 µM (inactive). In addition, the GI50 is 94.2 µM (inactive) with OVCAR-3; > 100 µM (inactive) in the assay with COLO 205; > 100 µM (inactive) with K562; > 100 µM (inactive) with MCF7; > 100 µM (inactive) with IGROV-1; > 100 µM (inactive) in the assay with SW-620. In addition, the GI50 in the assay with HL-60, in the assay with LOX IMVI, in the assay with Hs-578T, in the assay with UO-31, in the assay on A498 and with Malme-3M was > 100 µM (inactive) in each case.

As for `CCCCN1C(=O)CS/C1=N/Nc1nc2c([nH]1)c(=O)n(C)c(=O)n2C`, the GI50 in the assay with MDA-N is 14.6 µM (inactive); in the assay with TK-10, > 100 µM (inactive); with A549, > 100 µM (inactive); in the assay with SNB-19, 37.8 µM (inactive); in the assay with SK-MEL-28 it was 20 µM (inactive); in the assay with HCT-15, above 100 µM. Moreover, the GI50 in the assay with UACC-62 is 86.5 µM (inactive); with OVCAR-3, 64.1 µM (inactive); in the assay with COLO 205, > 100 µM (inactive); in the assay with K562, 30.5 µM (inactive); in the assay on MCF7 it was 13.7 µM (inactive); with IGROV-1, > 100 µM (inactive). Also, the GI50 is 15 µM (inactive) in the assay on U-251; > 100 µM (inactive) in the assay on HL-60; 45.4 µM (inactive) in the assay on Hs-578T; > 100 µM (inactive) with UO-31; > 100 µM (inactive) in the assay on A498; 38.8 µM (inactive) in the assay with Malme-3M.

`O=c1[nH]c2ccsc2c(=O)n1COCc1ccccc1`: the GI50 in the assay on MDA-N was > 100 µM (inactive); with TK-10 it was > 100 µM (inactive); in the assay with A549, > 100 µM (inactive); in the assay with SNB-19 it was > 100 µM (inactive); in the assay with SK-MEL-28 it was > 100 µM (inactive); in the assay on HCT-15 it was above 100 µM. Further, the GI50 in the assay with OVCAR-3, in the assay on COLO 205, in the assay with K562, in the assay with MCF7, in the assay on IGROV-1 and in the assay on U-251 was > 100 µM (inactive) throughout. Moreover, the GI50 with SW-620, in the assay on HL-60, in the assay on LOX IMVI, with Hs-578T, with UO-31 and with A498 was > 100 µM (inactive) throughout. In addition, the GI50 in the assay on Malme-3M was > 100 µM (inactive).

As to `COC(=O)C1=C(O)C(C(=O)OC)C2CC(=O)CC1C2(C)C` (stereo not given), the GI50 with MDA-N is > 100 µM (inactive); in the assay with TK-10 it was > 100 µM (inactive); with A549 it was > 100 µM (inactive); in the assay on SNB-19, > 100 µM (inactive); with SK-MEL-28, > 100 µM (inactive); in the assay on HCT-15, above 100 µM. The GI50 in the assay on UACC-62, with OVCAR-3, in the assay on COLO 205, in the assay with K562, with MCF7 and in the assay on IGROV-1 was > 100 µM (inactive) each time. For the same molecule, the GI50 in the assay on U-251 was > 100 µM (inactive); with SW-620, > 100 µM (inactive); in the assay with HL-60, > 100 µM (inactive); in the assay on Hs-578T it was 11.2 µM (inactive); in the assay on UO-31, > 100 µM (inactive); with A498, > 100 µM (inactive). Moreover, the GI50 with Malme-3M is > 100 µM (inactive).

In the case of `COc1ccc(C2SCC(=O)N2NC(=O)c2ccc(NC(C)=O)cc2)c(OC)c1` (stereo not given), the GI50 in the assay on MDA-N is > 100 µM (inactive); in the assay with TK-10 it was > 100 µM (inactive); with A549, > 100 µM (inactive); in the assay with SNB-19, > 100 µM (inactive); with SK-MEL-28 it was > 100 µM (inactive); in the assay on HCT-15, above 100 µM. Further, the GI50 in the assay with UACC-62, in the assay on OVCAR-3, in the assay on COLO 205, in the assay on K562, in the assay on MCF7 and in the assay with IGROV-1 was > 100 µM (inactive) each time. The GI50 is 33.6 µM (inactive) with U-251; > 100 µM (inactive) in the assay with SW-620; > 100 µM (inactive) in the assay with HL-60; > 100 µM (inactive) in the assay with Hs-578T; > 100 µM (inactive) in the assay on UO-31; > 100 µM (inactive) with A498.

Consider `Cc1cc(S(=O)(=O)[N-]/C(=N/S(=O)(=O)c2ccc(Cl)cc2)[n+]2ccc(N(C)C)cc2)c(S)cc1Cl`, for which the GI50 with MDA-N is > 100 µM (inactive); in the assay on TK-10 it was 49.2 µM (inactive); in the assay on SK-MEL-28 it was > 100 µM (inactive); with HCT-15 it was 75.7 µM; in the assay with OVCAR-3, 56.1 µM (inactive); in the assay on K562 it was 1.92 µM (inactive). The GI50 in the assay on MCF7 was 47.9 µM (inactive); in the assay with IGROV-1, > 100 µM (inactive); with U-251, 47 µM (inactive); in the assay with SW-620, 58.3 µM (inactive); in the assay with HL-60, 34.8 µM (inactive); with LOX IMVI it was > 100 µM (inactive). The GI50 in the assay with Hs-578T was 54.8 µM (inactive); in the assay on UO-31 it was 79.4 µM (inactive); with A498 it was 26.4 µM (inactive).
